Experimental data from patent US20080213817A1, “Enhancement of Th2-Dependent and Inflammatory Response” (priority 2004, published 2008).

Key:
Format in all cases: cell-based, mice
c-Jun and JunB = experiment: Immunoblotting of Jun protein levels in activated T cells
Method: (§1) JNK1 was immunoprecipitated from 30 μg cell lysate with anti-JNK1 antibody (333, PharMingen) and its kinase activity measured by an immunecomplex kinase assay with GST-c-Jun(1-79) as a substrate (Xia et al. (2000) Proc Natl Acad Sci USA 97, 5243-5248). c-Jun phosphorylation was quantitated using a PhosphoImager (Bio-Rad) and gel loading was normalized by immunoblotting with a monoclonal antibody against JNK1/2 (666, PharMingen). ERK activation was examined by immunoblotting of gel separated whole cell extracts (100 μg) with an antibody specific for phospho-ERK (Cell Signaling). Polyclonal antibody against MEKK1 was prepared as described (Gallagher et al. (2002) J Biol Chem 277, 45785-45792). Antibodies against c-Jun, JunB, GATA3, c-Maf, NFATc1, NFATc2, p16, and p65 (RelA) were all from Santa Cruz Biotechnology. Polyclonal antibody against Itch was prepared as described (Qiu et al. (2000) J Biol Chem 275, 35734-35737). The levels of various proteins were quantitated by BioRad Quantity One software.
(§2) The levels of Itch and actin were examined was measured by immunoblotting. […] Cells were chased with nonradioactive amino acids for the indicated times, at which they were lysed and Itch expression levels were determined by radioimmunoprecipitation. The levels of [^35S]-labeled Itch were quantitated using a PhosphoImager. […] JNK activity was measured by an immunecomplex kinase assay. Phosphorylated c-Jun was detected by autoradiography and quantitated using a PhosphoImager. […]
Inactivation of MEKK1 or JNK Slows Down JunB and c-Jun Turnover • A. Thymocytes and CD4^+ T cells from WT and Mekk1^ΔKD were stimulated with anti-CD3+anti-CD28 for 24 hrs. Cell extracts were prepared and the levels of various transcription factors were measured by immunoblotting. The relative levels of the different proteins determined by densitometry are indicated. […] The mRNA levels of Jun family members and c-Fos were measured by RNase protection. […] Cell lysates were prepared and immunoprecipitated with various antibodies as indicated, separated by SDS-PAGE and analyzed by autoradiography. […]

Itch = experiment: Immunoblotting of Itch level in activated thymocytes; details: activated WT thymocytes
Method: as §1, with “Polyclonal antibody against Itch was prepared as described (Qiu et al. (2000) J Biol Chem 275, 35734-35737).” left out
as §2

WT thymocytes = experiment: Thymocyte proliferation, [3H] thymidine incorporation; details: WT thymocytes
Method: For proliferation assays, purified thymocytes or CD4^+ or CD8^+ splenic T cells (2×10^5 cells/well) were cultured in round bottom 96-well plates (Costar) precoated with anti-CD3 antibody (BD Pharmingen) in the absence or presence of soluble anti-CD28 antibody (BD Pharmingen). After 3 days, cultures were pulsed for 6 hrs with 1 μCi [^3H] thymidine (New England Nuclear) per well and cells were harvested. [^3H] thymidine incorporation was measured by scintillation counting. When indicated, either recombinant IL-4 or neutralizing anti-IL-4 antibody (R&D Systems) were added prior to [^3H] thymidine labeling.
For proliferation assays, purified thymocytes (2×10^5 cells/well) were cultured in round bottom 96-well plates (Costar) precoated with anti-CD3 antibody (BD Pharmingen) in the absence or presence of soluble anti-CD28 antibody (BD Pharmingen). […] [^3H] thymidine incorporation was measured by scintillation counting. […]
The effect of the Mekk1^KD mutation on activation of JNK and other MAPKs in response to TCR and CD28 engagement was investigated. • A. WT and Mekk1^KD thymocytes were incubated with anti-CD3 (10 μg/ml) and anti-CD28 (1 μg/ml). At the indicated times, JNK activity was measured by an immunecomplex kinase assay using GST-c-Jun(1-79) as the substrate. Phosphorylated c-Jun was detected by autoradiography and quantitated using a PhosphorImager. […] Cell proliferation was measured as above. […]

SMILES | c-Jun and JunB expression (in words) (c-Jun and JunB; WT CD4^+ T cells stimulated with anti-CD3 and anti-CD28, 24 hours) | effect on c-Jun and JunB expression (in words) (c-Jun and JunB; activated WT thymocytes) | effect on Itch expression (in words) (Itch) | effect on [3H] thymidine incorporation (in words) (WT thymocytes; anti-CD3+anti-CD28) | increase in c-Jun and JunB expression (c-Jun and JunB; activated WT thymocytes (anti-CD3+anti-CD28), 24 hrs, SP600125 0.5 μM, JNKI-1 25 μM) [fold] | decrease in Itch expression (Itch; 24 hrs, 0.5 μM) [fold] | increase in [3H] thymidine incorporation (WT thymocytes; different concentrations of anti-CD3+anti-CD28, increasing amounts of inhibitor, 72 hrs)
Oc1ccc(-c2nc(-c3ccncc3)c(-c3ccc(F)cc3)[nH]2)cc1 [SB202190] | No such effects | Negligible such effects | Negligible such effects | did not produce such an effect |  |  | 
Oc1c2ccccc2c2c3c(cccc13)N=N2 [SP600125] |  |  |  |  | 4 | 2 | at least 2 fold
